42 molecules from ChEMBL document CHEMBL4813953, “Kinetics-Driven Drug Design Strategy for Next-Generation Acetylcholinesterase Inhibitors to Clinical Candidate” (J Med Chem, 2021) can be followed below.

Broadly, the IC50 is the concentration that inhibits the measured activity by half. Low readings indicate greater potency in that assay, high ones weaker potency in that assay. Usually Kd stands for a measure of binding affinity in units of concentration. What is called inhibition is the change of the read-out against control, counted positive when it falls. A lower inhibition goes with little suppression.

Each structure is given as a SMILES string. Calls of active or inactive are those of the source. The calls are words filed in the database; no cut-off is given here.

Data set [1] concerns the target T1, Acetylcholinesterase (Rattus norvegicus, UniProt P37136).
T1 sequence (P37136 whole entry): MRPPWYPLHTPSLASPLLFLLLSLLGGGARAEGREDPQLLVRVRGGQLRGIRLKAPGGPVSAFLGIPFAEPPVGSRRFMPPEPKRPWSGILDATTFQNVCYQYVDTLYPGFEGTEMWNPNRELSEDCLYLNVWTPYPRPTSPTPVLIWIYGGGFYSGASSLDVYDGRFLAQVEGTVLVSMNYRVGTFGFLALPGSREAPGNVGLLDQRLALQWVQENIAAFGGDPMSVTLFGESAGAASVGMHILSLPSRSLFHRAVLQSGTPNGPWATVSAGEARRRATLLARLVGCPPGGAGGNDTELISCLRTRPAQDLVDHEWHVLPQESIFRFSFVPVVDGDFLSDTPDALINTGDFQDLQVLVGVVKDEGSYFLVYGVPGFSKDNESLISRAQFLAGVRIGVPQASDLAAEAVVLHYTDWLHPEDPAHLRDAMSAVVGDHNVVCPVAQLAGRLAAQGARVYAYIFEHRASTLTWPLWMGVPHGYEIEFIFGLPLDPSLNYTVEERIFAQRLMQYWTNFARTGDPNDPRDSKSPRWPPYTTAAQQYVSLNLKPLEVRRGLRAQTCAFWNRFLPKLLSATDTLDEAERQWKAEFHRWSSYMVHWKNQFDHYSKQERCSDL
The data set can be described thus: Inhibition of rat cortex homogenate acetylcholinesterase using acetylthiocholine iodide as substrate incubated for 20 mins by Ellman's method. The format is tissue-based.

For data set [2], the target named is Acetylcholinesterase (Homo sapiens, UniProt P22303). Briefly: Binding affinity to CM5 sensor chip immobilized recombinant human AChE assessed as dissociation constant at 298.15 K by surface plasmon resonance assay.
Sequence of Acetylcholinesterase (Homo sapiens, UniProt P22303) (P22303 whole entry): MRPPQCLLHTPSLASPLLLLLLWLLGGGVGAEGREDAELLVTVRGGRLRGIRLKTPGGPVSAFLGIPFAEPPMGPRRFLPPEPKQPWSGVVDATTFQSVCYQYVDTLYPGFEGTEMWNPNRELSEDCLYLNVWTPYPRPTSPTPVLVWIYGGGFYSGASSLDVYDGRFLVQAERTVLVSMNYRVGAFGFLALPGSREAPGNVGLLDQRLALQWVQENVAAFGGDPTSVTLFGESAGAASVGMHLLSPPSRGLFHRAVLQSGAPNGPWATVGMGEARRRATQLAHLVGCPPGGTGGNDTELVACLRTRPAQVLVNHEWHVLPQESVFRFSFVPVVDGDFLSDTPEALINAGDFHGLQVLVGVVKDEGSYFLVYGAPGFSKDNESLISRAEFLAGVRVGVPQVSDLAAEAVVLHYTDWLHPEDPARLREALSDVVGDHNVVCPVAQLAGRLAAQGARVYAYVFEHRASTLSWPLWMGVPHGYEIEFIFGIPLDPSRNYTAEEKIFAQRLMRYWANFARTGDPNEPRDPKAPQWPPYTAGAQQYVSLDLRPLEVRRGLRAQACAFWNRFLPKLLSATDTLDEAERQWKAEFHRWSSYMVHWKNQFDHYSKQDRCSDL
For data set [3], the target named is T2, Acetylcholinesterase (Rattus norvegicus) (UniProt P37136).
T2 sequence (whole entry): T1 sequence (P37136 whole entry)
Briefly: Inhibition of rat cortex homogenate acetylcholinesterase at 40 uM using acetylthiocholine iodide as substrate incubated for 20 mins by Ellman's method relative to control. The format is tissue-based. For orientation: In Ellman's method for cholinesterases, released thiocholine reacts with DTNB.

Data set [4] relates to Mus musculus. Briefly: Cognitive enhancing effect in mouse model of scopolamine-induced memory impairment assessed as reduction in number of errors at 8 to 12 mg/kg, IG QD for 3 days by channel water maze test. It counts as functional, organism-based. Particulars: dose 8-12 mg/kg, time 3.0 day.
In data set [5] the test system is Mus musculus. Briefly: Cognitive enhancing effect in mouse model of scopolamine-induced memory impairment assessed as reduction in escape latency time at 8 to 12 mg/kg, IG QD for 3 days by channel water maze test. The format is functional, organism-based. The note with it: dose 8-12 mg/kg, time 3.0 day.
Data set [6] is described as follows: Solubility of the compound. It counts as physicochemical.

Take `COc1cc2c(cc1OC)C(=O)C(CC1(F)CCN(Cc3cc(F)cc(F)c3F)CC1)C2` (stereo not given): the IC50 in data set [1] was determined as 306 nM.

`COc1cc2c(cc1OC)C(=O)C(CC1(F)CCN(Cc3cc(F)c(F)cc3F)CC1)C2` (stereo not given): the Kd in data set [2] is 5.23 nM. In the case of `CCCOc1cc2c(cc1OCCC)C(=O)C(CC1(F)CCN(Cc3ccccc3F)CC1)C2` (stereo not given), in data set [1], the IC50 stood at 66.7 nM. Regarding `COc1cc2c(cc1OCC1CC1)C(=O)C(CC1(F)CCN(Cc3ccc(F)cc3F)CC1)C2` (stereo not given), the IC50 in data set [1] turned out to be 4.59 nM. `COc1cc2c(cc1OC)C(=O)C(CC1(F)CCN(CCc3cccc(F)c3)CC1)C2` (stereo not given) yielded an IC50 in data set [1] of 59 nM.

Consider `CCCCOc1cc2c(cc1OCCCC)C(=O)C(CC1(F)CCN(Cc3cccc(F)c3)CC1)C2` (stereo not given), for which half-maximal inhibition in data set [1] (IC50) was put at 646 nM. Molecule `COc1ccc2c(c1)CC(CC1(F)CCN(Cc3cccc(F)c3)CC1)C2=O` (stereo not given) registered an IC50 in data set [1] of 14.1 nM.

As to `COc1cc2c(cc1OC)C(=O)C(CC1(F)CCN(Cc3ccccc3C#N)CC1)C2` (stereo not given), in data set [1], inhibition was half-maximal at 163 nM (IC50). In turn, `COc1cc2c(cc1OC)C(=O)C(CC1(F)CCN(Cc3ccc(F)c(F)c3F)CC1)C2` (stereo not given) registered an IC50 in data set [1] of 75.7 nM.

Consider `COc1cc2c(cc1OC)C(=O)C(CC1(F)CCN(Cc3cccc(C)c3)CC1)C2` (stereo not given), for which the IC50 in data set [1] turned out to be 11.7 nM. Still for that read-out and setting: to `COc1cc2c(cc1F)CC(CC1(F)CCN(Cc3cccc(F)c3)CC1)C2=O` (stereo not given) belongs 44.9 nM. Regarding `COc1cc2c(cc1OC)C(=O)C(CC1(F)CCN(Cc3ccc(OC(F)(F)F)cc3)CC1)C2` (stereo not given), the inhibition in data set [3] came out at 51.7%. As to `COc1ccc2c(c1)C(=O)C(CC1(F)CCN(Cc3ccc(F)cc3)CC1)C2` (stereo not given), the IC50 in data set [1] is 260 nM.

`COc1cc2c(cc1OC)C(=O)C(CC1(F)CCN(Cc3cccc(C(F)(F)F)c3)CC1)C2` (stereo not given) showed an IC50 in data set [1] of 348 nM. In the case of `COc1cc2c(cc1OC)C(=O)C(CC1CCN(Cc3ccccc3)CC1)C2` (stereo not given), the outcome in data set [4] and in data set [5] was Active. The molecule `COc1cc2c(cc1F)CC(CC1(F)CCN(Cc3ccc(F)cc3)CC1)C2=O` (stereo not given) yielded an IC50 in data set [1] of 28.3 nM.

`COc1cc2c(cc1OCC1CC1)C(=O)C(CC1(F)CCN(Cc3cccc(F)c3)CC1)C2` (stereo not given) yielded an IC50 in data set [1] of 5.87 nM.

As for `COc1cc2c(cc1F)C(=O)C(CC1(F)CCN(Cc3ccc(F)cc3)CC1)C2` (stereo not given), the IC50 in data set [1] is 3.44 nM.

In data set [1], `COc1cc2c(cc1F)C(=O)C(CC1(F)CCN(Cc3ccccc3F)CC1)C2` (stereo not given) displayed an IC50 of 3.52 nM. Turning to `COc1ccc2c(c1)CC(CC1(F)CCN(Cc3ccccc3F)CC1)C2=O` (stereo not given), the IC50 in data set [1] was 6.29 nM. Still for that read-out and setting: to `COc1cc2c(cc1OC)C(=O)C(CC1(F)CCN(CCc3ccc(F)cc3)CC1)C2` (stereo not given) belongs 404 nM.

With `CCCCOc1cc2c(cc1OCCCC)C(=O)C(CC1(F)CCN(Cc3ccccc3F)CC1)C2` (stereo not given), in data set [1], the half-maximal inhibitory concentration (IC50) is 181 nM. The same measure, in the same setting: to `COc1cc2c(cc1F)C(=O)C(CC1(F)CCN(Cc3cccc(F)c3)CC1)C2` (stereo not given) belongs 3.71 nM. On to `COc1cc2c(cc1F)CC(CC1(F)CCN(Cc3ccccc3F)CC1)C2=O` (stereo not given), for which half-maximal inhibition in data set [1] (IC50) required 22.5 nM. The same measure, in the same setting: under `COc1cc2c(cc1OC)C(=O)C(CC1(F)CCN(Cc3cccc(C#N)c3)CC1)C2` (stereo not given) stands 67.3 nM. On to `COc1cc2c(cc1OC)C(=O)C(CC1(F)CCN(Cc3ccc(F)cc3F)CC1)C2` (stereo not given), for which the Kd in data set [2] worked out at 3.47 nM. The IC50 in data set [1] is 8.33 nM. `CCCOc1cc2c(cc1OC)CC(CC1(F)CCN(Cc3ccc(F)cc3)CC1)C2=O` (stereo not given) yielded an IC50 in data set [1] of 18.3 nM. Turning to `COc1cc2c(cc1OC)C(=O)C(CC1(F)CCN(Cc3c(F)c(F)c(F)c(F)c3F)CC1)C2` (stereo not given), in data set [6], the solubility entry is given as “Insoluble”. In turn, `COc1cc2c(cc1OC)C(=O)C(CC1(F)CCN(Cc3ccc(C(F)(F)F)cc3)CC1)C2` (stereo not given) had an inhibition in data set [3] of 75.3%.

In turn, `COc1cc2c(cc1OC)C(=O)C(CC1(F)CCN(CCc3ccccc3F)CC1)C2` (stereo not given) gave an inhibition in data set [3] of 74.7%. In data set [1], `COc1cc2c(cc1OCC1CC1)C(=O)C(CC1(F)CCN(Cc3ccc(F)cc3)CC1)C2` (stereo not given) displayed an IC50 of 5.39 nM. The same measure, in the same setting: to `COc1cc2c(cc1OC)C(=O)C(CC1(F)CCN(Cc3ccccc3C(F)(F)F)CC1)C2` (stereo not given) belongs 1640 nM.

In the case of `COc1cc2c(cc1OC)C(=O)C(CC1(F)CCN(Cc3ccccc3)CC1)C2` (stereo not given), the Kd in data set [2] came out at 4.61 nM. `COc1cc2c(cc1OCC1CC1)C(=O)C(CC1(F)CCN(Cc3ccccc3F)CC1)C2` (stereo not given) displayed an inhibition in data set [3] of 8.4%. On to `COc1cc2c(cc1OC)C(=O)C(CC1(F)CCN(Cc3cccc(F)c3)CC1)C2` (stereo not given), for which the dissociation constant Kd in data set [2] worked out at 5.02 nM. The same molecule registered an IC50 in data set [1] of 3 nM. Turning to `COc1cc2c(cc1OC)C(=O)C(CC1(F)CCN(Cc3ccc(F)cc3)CC1)C2` (stereo not given), the Kd in data set [2] stood at 2.78 nM.

In turn, `COc1cc2c(cc1OC)C(=O)C(CC1(F)CCN(Cc3cc(F)cc(F)c3)CC1)C2` (stereo not given) showed an IC50 in data set [1] of 226 nM. `COc1cc2c(cc1OC)C(=O)C(CC1(F)CCN(Cc3ccc(C(C)(C)C)cc3)CC1)C2` (stereo not given): the inhibition in data set [3] was determined as 69.1%. `CCCOc1cc2c(cc1OCCC)C(=O)C(CC1(F)CCN(Cc3cccc(F)c3)CC1)C2` (stereo not given): the concentration for half-maximal inhibition (IC50) in data set [1] was 176 nM.

Take `C/C=C1\[C@H]2C=C(C)C[C@]1(N)c1ccc(=O)[nH]c1C2` [HUPERZINE A]: the Kd in data set [2] worked out at 17 nM.

On to `COc1ccc2c(c1)C(=O)C(CC1(F)CCN(Cc3ccccc3F)CC1)C2` (stereo not given), for which, in data set [1], the IC50 was 60.5 nM. Still for that read-out and setting: under `CCCOc1cc2c(cc1OC)CC(CC1(F)CCN(Cc3ccccc3F)CC1)C2=O` (stereo not given) stands 25.3 nM.
